Experiment: FAC binding constant
Settings: at 25° C.
Experimental: Details of the FAC method are described in Patent Document 2 filed by some of the present applicants, for example.
Binding constants (at 25° C.) of PhoSL, SRL, NSL and LSL belonging to the fucose α1→6 specific lectin for various sugar chains are shown in Tables 2 to 5.

[1] = sugar chain having fucose other than α1→6 fucose

SRL: fucose α1→6 specific lectin that can be extracted from Stropharia rugosoannulata, SEQ ID No. 2
<1000 M⁻¹: Binding constant for sugar chain No. 728 (Table 3: sugar chain having fucose other than α1→6 fucose) | Binding constant for sugar chain No. 419 [1] | Binding constant for sugar chain No. 420 [1] | Binding constant for sugar chain No. 718 [1] | Binding constant for sugar chain No. 719 [1] | Binding constant for sugar chain No. 720 [1] | Binding constant for sugar chain No. 721 [1] | Binding constant for sugar chain No. 722 [1] | Binding constant for sugar chain No. 723 [1] | Binding constant for sugar chain No. 726 [1] | Binding constant for sugar chain No. 727 [1] | Binding constant for sugar chain No. 729 [1] | Binding constant for sugar chain No. 730 [1] | Binding constant for sugar chain No. 731 [1] | Binding constant for sugar chain No. 739 [1] | Binding constant for sugar chain No. 909 [1] | Binding constant for sugar chain No. 910 [1] | Binding constant for sugar chain No. 931 [1] | Binding constant for sugar chain No. 932 [1] | Binding constant for sugar chain No. 933 [1] | Binding constant for sugar chain No. 001 (sugar chain having no fucose) | Binding constant for sugar chain No. 002 (sugar chain having no fucose) | Binding constant for sugar chain No. 003 (sugar chain having no fucose) | Binding constant for sugar chain No. 004 (sugar chain having no fucose) | Binding constant for sugar chain No. 005 (sugar chain having no fucose) | Binding constant for sugar chain No. 006 (sugar chain having no fucose) | Binding constant for sugar chain No. 007 (sugar chain having no fucose) | Binding constant for sugar chain No. 008 (sugar chain having no fucose) | Binding constant for sugar chain No. 009 (sugar chain having no fucose) | Binding constant for sugar chain No. 010 (sugar chain having no fucose) | Binding constant for sugar chain No. 011 (sugar chain having no fucose) | Binding constant for sugar chain No. 012 (sugar chain having no fucose) | Binding constant for sugar chain No. 013 (sugar chain having no fucose) | Binding constant for sugar chain No. 014 (sugar chain having no fucose) | Binding constant for sugar chain No. 101 (sugar chain having no fucose) | Binding constant for sugar chain No. 103 (sugar chain having no fucose) | Binding constant for sugar chain No. 104 (sugar chain having no fucose) | Binding constant for sugar chain No. 105 (sugar chain having no fucose) | Binding constant for sugar chain No. 107 (sugar chain having no fucose) | Binding constant for sugar chain No. 108 (sugar chain having no fucose) | Binding constant for sugar chain No. 301 (sugar chain having no fucose) | Binding constant for sugar chain No. 304 (sugar chain having no fucose) | Binding constant for sugar chain No. 305 (sugar chain having no fucose) | Binding constant for sugar chain No. 307 (sugar chain having no fucose) | Binding constant for sugar chain No. 308 (sugar chain having no fucose) | Binding constant for sugar chain No. 313 (sugar chain having no fucose) | Binding constant for sugar chain No. 314 (sugar chain having no fucose) | Binding constant for sugar chain No. 323 (sugar chain having no fucose) | Binding constant for sugar chain No. 501 (sugar chain having no fucose) | Binding constant for sugar chain No. 502 (sugar chain having no fucose) | Binding constant for sugar chain No. 503 (sugar chain having no fucose) | Binding constant for sugar chain No. 504 (sugar chain having no fucose)
